{"source": "patent US20140017187A1", "about": "“Use of 5-(7-methoxy-3,3-dimethyl-2,3-dihydro-1-benzoxepin-5-yl)-3-methyl-penta-2,4-dienoic acid as a cosmetic” (Merck Patent GmbH, priority 2008, published 2014)", "origin": "cited, not measured here", "target": "T1, PPAR-alpha (Homo sapiens, UniProt Q07869)", "T1 sequence (Q07869 1-468)": "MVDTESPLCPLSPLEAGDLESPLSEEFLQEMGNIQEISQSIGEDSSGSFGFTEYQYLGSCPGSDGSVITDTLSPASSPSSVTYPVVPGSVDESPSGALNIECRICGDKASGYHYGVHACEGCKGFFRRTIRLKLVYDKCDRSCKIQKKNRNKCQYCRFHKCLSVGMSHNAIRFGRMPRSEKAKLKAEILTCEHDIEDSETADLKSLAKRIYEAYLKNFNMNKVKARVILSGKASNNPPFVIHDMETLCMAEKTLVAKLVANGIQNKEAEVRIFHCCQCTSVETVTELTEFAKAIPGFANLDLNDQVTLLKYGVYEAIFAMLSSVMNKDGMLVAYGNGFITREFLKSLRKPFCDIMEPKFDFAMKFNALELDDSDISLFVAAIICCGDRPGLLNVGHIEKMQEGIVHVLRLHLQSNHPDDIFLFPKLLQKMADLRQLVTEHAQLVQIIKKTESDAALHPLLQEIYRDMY", "details": "personal communication Johann Wiechers; cited from earlier work"}
{"substance": "Octadecenedioic acid [O.D.A. White]", "values": [{"measurement": "PPAR-alpha activation", "result": "negligible"}]}
